{"source": "patent US7579331B2", "about": "“Method of improved diuresis in individuals with impaired renal function” (Novacardia, Inc., priority 2004, dated 2009)", "key": {"urine volume": {"test_system": "urine volume", "conditions": "equi-potent dose .3 mg/kg or 20 mg, Wolff et al 1998; cited from earlier work"}, "[1]": {"conditions": "reported by Ticho et al 2003; cited from earlier work"}, "adenosine A1 receptors [2]": {"biological_target": "T1, adenosine A1 receptors (Homo sapiens, UniProt P30542)", "T1 sequence (P30542 1-326)": "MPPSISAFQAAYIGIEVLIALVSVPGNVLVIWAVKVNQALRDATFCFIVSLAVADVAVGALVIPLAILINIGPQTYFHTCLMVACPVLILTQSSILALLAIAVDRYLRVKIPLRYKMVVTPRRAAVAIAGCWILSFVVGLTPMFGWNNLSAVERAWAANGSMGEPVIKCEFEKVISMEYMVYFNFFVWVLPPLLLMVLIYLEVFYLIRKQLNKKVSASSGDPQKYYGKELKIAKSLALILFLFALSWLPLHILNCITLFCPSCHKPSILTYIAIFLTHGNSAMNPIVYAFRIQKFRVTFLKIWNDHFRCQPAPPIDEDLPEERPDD", "conditions": "read-out: A1KI, cited from earlier work"}, "adenosine A1 receptors [3]": {"biological_target": "T1, adenosine A1 receptors", "conditions": "BG 9719 relative to KW-3902"}}, "note": "Like-named read-outs stand apart in the source and are kept apart here."}
{"smiles": "CCCn1c(=O)c2nc([C@H]3C[C@H]4C[C@@H]3[C@@H]3O[C@H]43)[nH]c2n(CCC)c1=O", "note": "[BG 9719]", "values": [{"measurement": "% Urine volume increase over placebo, 3 hr", "setting": "urine volume", "value": 33, "unit": "%"}, {"measurement": "solubility", "setting": "[1]", "value": "poor"}, {"measurement": "stability", "setting": "[1]", "value": "poor"}, {"measurement": "Ki", "setting": "adenosine A1 receptors [2]; adenosine A1 receptor", "value": "0.45 ± 0.04", "unit": "nM"}, {"measurement": "Ki", "setting": "adenosine A1 receptors [2]; repeated in the equi-potent dose table", "value": "0.45 ± 0.04", "unit": "nM"}, {"measurement": "greater affinity for the A1 receptor than KW-3902", "setting": "adenosine A1 receptors [3]", "value": 60, "unit": "%"}]}
